Test results taken from US8883827B2, “Azole derivatives as WTN pathway inhibitors” (Oslo University Hospital HF, priority 2009, dated 2014).
Read-outs that look alike come from different tables or passages of the source.

Legend:
[1] = system: TNF-α pathway; experiment: NF-κB-Luciferase reporter in HEK293 cells with rTNF-α; assay type: cell-based; conditions: 1 or 10 μM, 24 h, 10 ng/ml rTNF-α
Excerpt: 2) HEK293 cells transiently transfected with a NF-κB-Luciferase reporter (NF-κB-Luc—purchased from Promega).

[2] = system: DLD-1 cells; experiment: Real-time RT-PCR of Wnt target genes; assay type: cell-based; conditions: 10 (or 25) M as printed, 72 h, relative to GAPDH
Method: (§1) A real-time RT-PCR analysis was employed to confirm specific inhibition of expressed Wnt target genes. […] After 24 hours, solutions containing compound No. 1 were added at 10 or 25 μm final concentrations. Media containing the test compound were changed daily for 3 days. […] Real Time RT-PCR (SYBR Green PCR Mastermix, Stratagene) was performed using the following primers on a Mx3000P® QPCR System real-time thermal cycler (Stratagene): Results were calculated as the ratio of expression of target gene to a control gene (GAPDH).

[3] = system: SW480 cells; experiment: Real-time RT-PCR of Wnt target genes; assay type: cell-based; conditions: 10 (or 25) M as printed, 72 h, relative to GAPDH
Method: as §1

[4] = system: LiCl-induced activation of canonical Wnt signaling; experiment: LiCl-induced ST-Luc reporter assay in HEK293 cells; assay type: cell-based; conditions: Homo sapiens; HEK293, 25 mM LiCl, 24 h; read-out: IC50, antagonism of LiCl-induced activation of canonical Wnt signaling
Method: Transfection of HEK293 cells was performed as described in Example 22, but using 0.23 μg NF-κB-Luciferase and 0.02 μg Renilla. […] All treated reporter cells were finally lysed and the firefly luciferase and Renilla activities were measured on a 20/20n Luminometer (Turner BioSystems) as described in the Dual-Glo™ Luciferase Assay System Technical Manual (Promega).

[5] = Compound concentration in plasma and tumors of xenograft mice; assay type: in vivo; conditions: C.B-Igh-1b/IcrTac-Prkdc scid (CB17/SCID), mouse, intraperitoneal, 24 h after last injection, day 29
Method: Daily injections (200 μl, i.p.) followed (two day injection intermissions after every fifth injection day) until experiment end (29 days). At the termination day, 24 hours after the last injection, blood was collected after cardiac puncture and the tumors were removed and weighed. The compound concentration in plasma and tumors was determined using an on-line and off-line Solid Phase Extraction-Capillary Liquid Chromatography (SPE-CapLC) instrumentation coupled to a Time of Flight (TOF) mass spectrometer, as previously described (Wilson, S. R. et al., J. Sep. Sci. 28: 1751-1758, 2005). A Zorbax SB C18 5 μm 150×0.3 mm column (Agilent, […], Calif., USA) was used for separation, and a Knauer K-2600 UV detector was used as a complimentary detector.

[6] = target: T1, PTPb(h) (Homo sapiens, UniProt P23467); experiment: Phosphatase screen; assay type: biochemical; conditions: 0.1% DMSO control = 100%
T1 construct: purchased Millipore (KinaseProfiler service)

[7] = target: T2, SHP-1(h) (Homo sapiens, UniProt P29350); experiment: Phosphatase screen; assay type: biochemical; conditions: 0.1% DMSO control = 100%
T2 construct: purchased Millipore (KinaseProfiler service)

[8] = target: T3, TMDP(h) (Homo sapiens, UniProt Q9UII6); experiment: Phosphatase screen; assay type: biochemical; conditions: 0.1% DMSO control = 100%
T3 construct: purchased Millipore (KinaseProfiler service)

[9] = target: T4, VHR(h) (Homo sapiens, UniProt P51452); experiment: Phosphatase screen; assay type: biochemical; conditions: 0.1% DMSO control = 100%
T4 construct: purchased Millipore (KinaseProfiler service)
T4 sequence (P51452 whole entry): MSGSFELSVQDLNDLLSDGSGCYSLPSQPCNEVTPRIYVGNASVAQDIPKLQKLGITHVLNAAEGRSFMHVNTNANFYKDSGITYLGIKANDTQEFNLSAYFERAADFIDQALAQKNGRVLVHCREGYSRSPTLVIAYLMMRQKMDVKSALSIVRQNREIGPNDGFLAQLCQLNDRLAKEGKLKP

[10] = target: T5, CDK1/cyclinB(h) (Homo sapiens, UniProt P06493); experiment: Kinase screen; assay type: biochemical; conditions: 0.1% DMSO control = 100%
T5 construct: purchased Millipore (KinaseProfiler service)

[11] = target: T6, CDK2/cyclinA(h) (Homo sapiens, UniProt P24941); experiment: Kinase screen; assay type: biochemical; conditions: 0.1% DMSO control = 100%
T6 construct: purchased Millipore (KinaseProfiler service)

[12] = target: T7, CK2(h) (Homo sapiens, UniProt P68400); experiment: Kinase screen; assay type: biochemical; conditions: 0.1% DMSO control = 100%
T7 construct: purchased Millipore (KinaseProfiler service)
T7 sequence (P68400 whole entry): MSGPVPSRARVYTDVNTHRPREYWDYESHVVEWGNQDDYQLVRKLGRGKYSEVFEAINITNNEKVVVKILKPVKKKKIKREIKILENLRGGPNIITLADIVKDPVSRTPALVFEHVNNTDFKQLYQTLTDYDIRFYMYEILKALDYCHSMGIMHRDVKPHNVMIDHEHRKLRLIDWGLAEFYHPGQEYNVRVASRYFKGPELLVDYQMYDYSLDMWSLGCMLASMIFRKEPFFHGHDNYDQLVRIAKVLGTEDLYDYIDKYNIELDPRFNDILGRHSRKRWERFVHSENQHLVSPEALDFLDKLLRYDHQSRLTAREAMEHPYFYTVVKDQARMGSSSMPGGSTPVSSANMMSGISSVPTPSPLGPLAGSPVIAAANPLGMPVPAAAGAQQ
T7 sequence (P67870 whole entry partner): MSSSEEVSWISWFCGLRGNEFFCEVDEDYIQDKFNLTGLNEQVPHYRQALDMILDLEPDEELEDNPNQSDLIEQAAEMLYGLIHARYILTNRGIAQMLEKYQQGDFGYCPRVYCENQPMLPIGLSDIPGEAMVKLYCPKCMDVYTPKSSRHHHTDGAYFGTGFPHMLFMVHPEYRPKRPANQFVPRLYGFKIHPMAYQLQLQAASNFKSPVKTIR

[13] = target: T8, CK2α2(h) (Homo sapiens, UniProt P19784); experiment: Kinase screen; assay type: biochemical; conditions: 0.1% DMSO control = 100%
T8 construct: purchased Millipore (KinaseProfiler service)

[14] = target: T9, cKit(h) (Homo sapiens, UniProt P10721); experiment: Kinase screen; assay type: biochemical; conditions: 0.1% DMSO control = 100%
T9 construct: purchased Millipore (KinaseProfiler service)
T9 sequence (P10721 26-976): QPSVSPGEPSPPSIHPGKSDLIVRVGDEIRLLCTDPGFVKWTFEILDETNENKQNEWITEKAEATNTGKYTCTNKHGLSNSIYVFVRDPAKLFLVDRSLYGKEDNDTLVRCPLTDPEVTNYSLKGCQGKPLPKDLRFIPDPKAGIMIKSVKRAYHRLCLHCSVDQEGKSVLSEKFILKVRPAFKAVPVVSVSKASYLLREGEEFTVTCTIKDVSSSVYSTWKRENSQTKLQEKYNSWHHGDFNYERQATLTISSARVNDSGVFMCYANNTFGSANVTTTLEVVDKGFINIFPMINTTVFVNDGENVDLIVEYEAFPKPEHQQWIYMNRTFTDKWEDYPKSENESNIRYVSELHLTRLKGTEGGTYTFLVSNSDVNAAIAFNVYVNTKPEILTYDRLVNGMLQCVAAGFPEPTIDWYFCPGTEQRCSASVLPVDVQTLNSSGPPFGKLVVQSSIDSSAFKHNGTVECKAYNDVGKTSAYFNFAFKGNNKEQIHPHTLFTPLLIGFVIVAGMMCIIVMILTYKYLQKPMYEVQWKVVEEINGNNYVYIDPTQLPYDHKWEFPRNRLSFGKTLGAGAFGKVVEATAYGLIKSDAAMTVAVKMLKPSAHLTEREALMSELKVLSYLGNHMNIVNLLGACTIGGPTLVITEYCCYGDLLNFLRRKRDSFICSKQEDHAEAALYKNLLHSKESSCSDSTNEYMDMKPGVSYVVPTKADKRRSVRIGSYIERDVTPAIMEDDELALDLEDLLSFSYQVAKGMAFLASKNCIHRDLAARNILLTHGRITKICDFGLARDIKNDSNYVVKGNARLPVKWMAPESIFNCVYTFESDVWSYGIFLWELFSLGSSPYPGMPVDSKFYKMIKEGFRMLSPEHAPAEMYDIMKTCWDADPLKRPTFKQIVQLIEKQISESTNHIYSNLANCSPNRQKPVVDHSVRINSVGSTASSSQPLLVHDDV

[15] = target: T10, EGFR(h) (Homo sapiens, UniProt P00533); experiment: Kinase screen; assay type: biochemical; conditions: 0.1% DMSO control = 100%
T10 construct: purchased Millipore (KinaseProfiler service)
T10 sequence (P00533 25-1210): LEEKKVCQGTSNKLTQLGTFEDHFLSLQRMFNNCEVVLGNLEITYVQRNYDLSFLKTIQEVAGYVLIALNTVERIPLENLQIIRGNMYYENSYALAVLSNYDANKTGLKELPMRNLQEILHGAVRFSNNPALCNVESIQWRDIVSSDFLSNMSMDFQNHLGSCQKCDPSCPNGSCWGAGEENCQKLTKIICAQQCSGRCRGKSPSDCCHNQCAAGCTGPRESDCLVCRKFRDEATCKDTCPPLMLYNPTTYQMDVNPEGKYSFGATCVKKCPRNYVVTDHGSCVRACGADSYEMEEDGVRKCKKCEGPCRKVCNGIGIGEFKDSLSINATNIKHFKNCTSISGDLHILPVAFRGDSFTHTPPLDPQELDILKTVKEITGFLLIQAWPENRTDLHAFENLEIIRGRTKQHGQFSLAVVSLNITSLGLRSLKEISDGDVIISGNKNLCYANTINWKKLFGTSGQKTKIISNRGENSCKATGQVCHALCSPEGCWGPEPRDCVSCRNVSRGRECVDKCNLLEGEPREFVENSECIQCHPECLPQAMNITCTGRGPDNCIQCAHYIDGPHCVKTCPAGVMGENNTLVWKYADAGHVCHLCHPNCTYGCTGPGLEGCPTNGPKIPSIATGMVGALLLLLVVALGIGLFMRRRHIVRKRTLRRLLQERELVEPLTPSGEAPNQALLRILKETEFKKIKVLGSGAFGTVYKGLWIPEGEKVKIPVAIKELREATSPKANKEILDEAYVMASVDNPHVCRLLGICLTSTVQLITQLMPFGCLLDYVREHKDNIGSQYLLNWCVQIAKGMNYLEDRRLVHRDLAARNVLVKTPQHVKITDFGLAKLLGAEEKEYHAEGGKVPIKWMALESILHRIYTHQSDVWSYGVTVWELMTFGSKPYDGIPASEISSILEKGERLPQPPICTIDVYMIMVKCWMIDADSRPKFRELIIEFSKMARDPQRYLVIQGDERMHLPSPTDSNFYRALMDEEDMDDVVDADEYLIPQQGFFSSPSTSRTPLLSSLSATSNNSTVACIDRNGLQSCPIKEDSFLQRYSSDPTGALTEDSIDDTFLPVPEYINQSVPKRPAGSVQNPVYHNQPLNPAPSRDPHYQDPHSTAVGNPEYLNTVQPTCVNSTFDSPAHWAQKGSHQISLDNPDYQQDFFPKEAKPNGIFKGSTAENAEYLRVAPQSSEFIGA

[16] = target: T11, GRK5(h) (Homo sapiens, UniProt P34947); experiment: Kinase screen; assay type: biochemical; conditions: 0.1% DMSO control = 100%
T11 construct: purchased Millipore (KinaseProfiler service)

[17] = target: T12, KDR(h) (Homo sapiens, UniProt P35968); experiment: Kinase screen; assay type: biochemical; conditions: 0.1% DMSO control = 100%
T12 construct: purchased Millipore (KinaseProfiler service)

[18] = target: T13, MAPK2(h) (Homo sapiens, UniProt P28482); experiment: Kinase screen; assay type: biochemical; conditions: 0.1% DMSO control = 100%
T13 construct: purchased Millipore (KinaseProfiler service)
T13 sequence (P28482 whole entry): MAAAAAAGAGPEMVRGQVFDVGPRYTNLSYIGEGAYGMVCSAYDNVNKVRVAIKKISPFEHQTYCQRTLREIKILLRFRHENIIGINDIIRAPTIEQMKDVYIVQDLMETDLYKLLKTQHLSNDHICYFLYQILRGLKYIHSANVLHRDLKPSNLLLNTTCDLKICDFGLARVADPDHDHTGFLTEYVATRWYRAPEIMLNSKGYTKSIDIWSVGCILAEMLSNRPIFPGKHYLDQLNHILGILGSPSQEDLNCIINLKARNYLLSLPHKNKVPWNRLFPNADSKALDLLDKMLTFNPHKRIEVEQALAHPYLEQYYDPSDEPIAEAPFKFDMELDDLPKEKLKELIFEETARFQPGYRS

[19] = target: T14, MKK7β(h) (Homo sapiens, UniProt O14733); experiment: Kinase screen; assay type: biochemical; conditions: 0.1% DMSO control = 100%
T14 construct: purchased Millipore (KinaseProfiler service)
T14 sequence (O14733 whole entry): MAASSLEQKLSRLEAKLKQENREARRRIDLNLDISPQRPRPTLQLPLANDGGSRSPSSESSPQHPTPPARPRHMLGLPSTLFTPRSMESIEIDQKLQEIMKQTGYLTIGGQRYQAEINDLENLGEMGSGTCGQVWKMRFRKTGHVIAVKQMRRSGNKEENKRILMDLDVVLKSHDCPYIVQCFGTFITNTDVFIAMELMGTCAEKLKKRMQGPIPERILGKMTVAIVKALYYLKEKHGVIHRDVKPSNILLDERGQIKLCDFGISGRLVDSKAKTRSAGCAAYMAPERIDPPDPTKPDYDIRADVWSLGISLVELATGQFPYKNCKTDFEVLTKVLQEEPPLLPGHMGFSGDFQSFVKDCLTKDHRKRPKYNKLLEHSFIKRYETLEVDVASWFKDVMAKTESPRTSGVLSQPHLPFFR

[20] = target: T15, Mnk2(h) (Homo sapiens, UniProt Q9HBH9); experiment: Kinase screen; assay type: biochemical; conditions: 0.1% DMSO control = 100%
T15 construct: purchased Millipore (KinaseProfiler service)

[21] = target: T16, MST1(h) (Homo sapiens, UniProt Q13043); experiment: Kinase screen; assay type: biochemical; conditions: 0.1% DMSO control = 100%
T16 construct: purchased Millipore (KinaseProfiler service)

[22] = target: T17, NEK2(h) (Homo sapiens, UniProt P51955); experiment: Kinase screen; assay type: biochemical; conditions: 0.1% DMSO control = 100%
T17 construct: purchased Millipore (KinaseProfiler service)
T17 sequence (P51955 whole entry): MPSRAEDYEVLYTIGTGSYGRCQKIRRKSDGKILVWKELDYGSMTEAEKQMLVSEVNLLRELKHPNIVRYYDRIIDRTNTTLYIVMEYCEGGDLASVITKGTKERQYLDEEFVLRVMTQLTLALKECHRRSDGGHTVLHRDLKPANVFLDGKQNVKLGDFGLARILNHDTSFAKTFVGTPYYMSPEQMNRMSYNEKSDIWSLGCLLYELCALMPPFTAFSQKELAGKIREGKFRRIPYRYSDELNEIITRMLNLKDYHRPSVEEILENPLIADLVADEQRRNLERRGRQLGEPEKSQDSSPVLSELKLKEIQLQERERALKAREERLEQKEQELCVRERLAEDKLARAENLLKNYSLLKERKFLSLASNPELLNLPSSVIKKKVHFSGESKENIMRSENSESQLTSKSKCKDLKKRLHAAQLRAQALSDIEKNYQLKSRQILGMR

[23] = target: T18, Pim-1(h) (Homo sapiens, UniProt P11309); experiment: Kinase screen; assay type: biochemical; conditions: 0.1% DMSO control = 100%
T18 construct: purchased Millipore (KinaseProfiler service)

[24] = target: T19, PKCθ(h) (Homo sapiens, UniProt Q04759); experiment: Kinase screen; assay type: biochemical; conditions: 0.1% DMSO control = 100%
T19 construct: purchased Millipore (KinaseProfiler service)
T19 sequence (Q04759 whole entry): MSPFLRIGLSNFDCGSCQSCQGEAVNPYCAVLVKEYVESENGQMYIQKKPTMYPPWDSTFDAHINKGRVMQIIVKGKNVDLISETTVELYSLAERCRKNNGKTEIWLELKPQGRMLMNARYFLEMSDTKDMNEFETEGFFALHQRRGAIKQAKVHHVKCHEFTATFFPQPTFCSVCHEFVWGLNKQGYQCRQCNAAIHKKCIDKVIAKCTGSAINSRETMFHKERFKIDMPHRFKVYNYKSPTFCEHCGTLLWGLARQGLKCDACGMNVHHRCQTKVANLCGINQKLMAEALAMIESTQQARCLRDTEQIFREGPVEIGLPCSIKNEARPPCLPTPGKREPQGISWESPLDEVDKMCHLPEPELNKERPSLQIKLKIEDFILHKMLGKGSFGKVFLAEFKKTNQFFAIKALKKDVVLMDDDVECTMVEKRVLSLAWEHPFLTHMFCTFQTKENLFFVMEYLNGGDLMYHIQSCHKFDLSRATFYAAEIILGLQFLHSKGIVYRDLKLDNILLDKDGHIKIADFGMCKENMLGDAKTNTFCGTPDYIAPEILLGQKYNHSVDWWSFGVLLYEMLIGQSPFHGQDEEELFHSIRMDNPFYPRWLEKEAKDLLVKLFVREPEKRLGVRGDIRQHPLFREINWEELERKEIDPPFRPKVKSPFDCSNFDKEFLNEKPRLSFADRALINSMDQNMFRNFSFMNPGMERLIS

[25] = target: T20, SRPK1(h) (Homo sapiens, UniProt Q96SB4); experiment: Kinase screen; assay type: biochemical; conditions: 0.1% DMSO control = 100%
T20 construct: purchased Millipore (KinaseProfiler Service)

COc1ccc(-n2c(SCc3nc(-c4ccc(C)cc4)no3)nnc2-c2ccncc2)cc1 [Compound 1]
effect against the TNF-α pathway [1]: no substantial activating or inhibitory effect | Axin2, SP5 and NKD1 mRNA levels [2]: dose dependent reduction | Axin2, SP5 and NKD1 mRNA levels [3]: dose dependent reduction | IC50 [4]: 420 nM | concentration at 24 h after the last injection ([5]; plasma, 150 mg/kg, 150 mg/kg group, read-out: concentration in plasma): 1300 ng/mL | concentration at 24 h after the last injection ([5]; plasma, 300 mg/kg, 300 mg/kg group, read-out: concentration in plasma): 1300 ng/mL | concentration at 24 h after the last injection ([5]; tumor, 150 mg/kg, 150 mg/kg cohort, read-out: concentration in tumors, mean): 11800 ng/g | concentration at 24 h after the last injection ([5]; tumor, 150 mg/kg, 150 mg/kg cohort, read-out: concentration in tumors, range): 1900 to 32900 ng/g | concentration at 24 h after the last injection ([5]; tumor, 300 mg/kg, 300 mg/kg cohort, read-out: concentration in tumors, mean): 2400 ng/g | concentration at 24 h after the last injection ([5]; tumor, 300 mg/kg, 300 mg/kg cohort, read-out: concentration in tumors, range): 900 to 4900 ng/g | activity at 10 µM [6]: 106% | activity at 10 µM [7]: 102% | activity at 10 µM [8]: 97% | activity at 10 µM [9]: 103% | activity at 10 µM [10]: 101% | activity at 10 µM [11]: 106% | activity at 10 µM [12]: 105% | activity at 10 µM [13]: 104% | activity at 10 µM [14]: 116% | activity at 10 µM [15]: 108% | activity at 10 µM [16]: 104% | activity at 10 µM [17]: 104% | activity at 10 µM [18]: 105% | activity at 10 µM [19]: 90% | activity at 10 µM [20]: 108% | activity at 10 µM [21]: 106% | activity at 10 µM [22]: 94% | activity at 10 µM [23]: 91% | activity at 10 µM [24]: 109% | activity at 10 µM [25]: 96%
